According to ChEMBL document CHEMBL1123824 (J Med Chem, 1987):
Where a SMILES comes first, the peptide text is derived from it. The star is where a group is joined. X1 = CCCN1C(=O)C2NC(c3ccc(OCC(=O)NCCNC(=O)C(N)CC(=O)*)cc3)=NC2N(CCC)C1=O; X2 = O=C(Cc1ccc(Nc2ncnc3c2ncn3[C@@H]2O[C@H](CO)[C@@H](O)[C@H]2O)cc1)*

Tests used:
[1] = molecular target: Substance-P receptor (Rattus norvegicus, UniProt P14600); test: Ability to inhibit the binding of [125I]physalaemin to the SP receptors in rat telencephalon slices
Chain of Substance-P receptor (P14600 whole entry): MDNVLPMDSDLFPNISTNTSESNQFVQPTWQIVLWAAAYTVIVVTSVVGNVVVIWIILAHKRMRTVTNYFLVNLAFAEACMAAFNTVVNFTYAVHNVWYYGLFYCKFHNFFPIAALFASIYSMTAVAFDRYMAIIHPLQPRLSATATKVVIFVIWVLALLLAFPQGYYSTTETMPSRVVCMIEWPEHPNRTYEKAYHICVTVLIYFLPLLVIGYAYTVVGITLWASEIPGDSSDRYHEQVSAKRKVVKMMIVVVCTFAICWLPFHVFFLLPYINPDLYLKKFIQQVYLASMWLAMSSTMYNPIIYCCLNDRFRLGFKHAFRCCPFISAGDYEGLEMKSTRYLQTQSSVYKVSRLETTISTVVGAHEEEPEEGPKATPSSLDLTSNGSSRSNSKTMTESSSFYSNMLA

[2] = molecular target: Adenosine receptor (Rattus norvegicus, UniProt P29276+P25099+P30543+P28647); test: Ability to inhibit the binding of [3H]N6-phenylisopropyl adenosine to adenosine receptor in rat cerebral cortex membranes; assay type: cell membranes, Membrane

Compound | Ki [1] [nM] | Ki [2] [nM]
CNC(=O)Cc1ccc(Nc2ncnc3c2ncn3C2O[C@H](CO)[C@@H](O)[C@H]2O)cc1 (stereo not given in full) | > 10000 | 
CCCN1C(=O)C2NC(c3ccc(OCC(=O)NCCNC(=O)C(N)CC(N)=O)cc3)=NC2N(CCC)C1=O (stereo not given) |  | 4.3
CSCC[C@H](NC(=O)[C@H](CC(C)C)NC(=O)CNC(=O)[C@H](Cc1ccccc1)NC(=O)[C@H](Cc1ccccc1)NC(=O)Cc1ccc(Nc2ncnc3c2ncn3[C@@H]2O[C@H](CO)[C@@H](O)[C@H]2O)cc1)C(N)=O (X2-FFGLM-NH2) | 2000 | 16
CSCC[C@@H](NC(=O)[C@H](CC(C)C)NC(=O)CNC(=O)[C@H](Cc1ccccc1)NC(=O)[C@H](Cc1ccccc1)NC(C)=O)C(N)=O |  | > 30000
H-QFFGLM-NH2 | 450 | 
CCCN1C(=O)C2NC(c3ccc(OCC(=O)NCCN)cc3)=NC2N(CCC)C1=O (stereo not given) | > 10000 | 1.2
CCCN1C(=O)C2NC(c3ccc(OCC(=O)NCCNC(=O)C(N)CC(=O)N[C@@H](Cc4ccccc4)C(=O)N[C@@H](Cc4ccccc4)C(=O)NCC(N)=O)cc3)=NC2N(CCC)C1=O (stereo not given in full) | > 10000 | 30
CSCC[C@H](NC(=O)[C@H](CC(C)C)NC(=O)CNC(=O)[C@H](Cc1ccccc1)NC(=O)[C@H](Cc1ccccc1)NC(C)=O)C(N)=O | > 10000 | 
O=C(O)Cc1ccc(Nc2ncnc3c2ncn3C2O[C@H](CO)[C@@H](O)[C@H]2O)cc1 (stereo not given in full) |  | 210

More lines, now with the values ahead:

Ki [1] [nM] | Ki [2] [nM] | Compound
> 10000 | 2.1 | CCCN1C(=O)C2NC(c3ccc(OCC(=O)NCCNC(=O)CN)cc3)=NC2N(CCC)C1=O (stereo not given)
180 |  | H-QQFFGLM-NH2
300 | 35 | CCCN1C(=O)C2NC(c3ccc(OCC(=O)NCCNC(=O)C(N)CC(=O)N[C@@H](Cc4ccccc4)C(=O)N[C@@H](Cc4ccccc4)C(=O)NCC(=O)N[C@@H](CC(C)C)C(=O)N[C@@H](CCSC)C(N)=O)cc3)=NC2N(CCC)C1=O (stereo not given in full) (X1-FFGLM-NH2)
> 10000 |  | CSCC[C@H](NC(=O)[C@H](CC(C)C)NC(=O)CNC(=O)[C@H](Cc1ccccc1)NC(=O)[C@@H](N)Cc1ccccc1)C(N)=O
 | > 30000 | CSCC[C@H](NC(=O)[C@H](CC(C)C)NC(=O)CNC(=O)[C@H](Cc1ccccc1)NC(=O)[C@H](Cc1ccccc1)NC(=O)[C@H](CCC(N)=O)NC(=O)[C@H](CCC(N)=O)NC(=O)[C@@H]1CCCN1C(=O)[C@H](CCCCN)NC(=O)[C@@H]1CCCN1C(=O)[C@@H](N)CCCN=C(N)N)C(N)=O [SUBSTANCE P]
 | > 30000 | CSCC[C@@H](NC(=O)[C@H](CC(C)C)NC(=O)CNC(=O)[C@H](Cc1ccccc1)NC(=O)[C@@H](N)Cc1ccccc1)C(N)=O
